We go through 54 compounds from patent US20230287021A1, “COMPOUNDS, COMPOSITIONS AND METHODS FOR STABILIZING TRANSTHYRETIN AND INHIBITING TRANSTHYRETIN MISFOLDING” (Protego Biopharma, Inc., priority 2020, published 2023).

Counter-ions that a name gives are not always drawn.

This series in a line: In vitro rat liver S9 stability assay, formation of tafamidis. It counts as in vitro ADME. The conditions noted are these: rat liver S9, 37° C., 1 µM test compound. As for the experimental part: The test compound was added to liver S9 and incubated at 37° C. in a water bath at a concentration of 1 µM. At each time point (0, 5, 10, 20, 30 and 60 min), stop solution (tolbutamide plus labetalol) was added to precipitate protein and mixed thoroughly. After centrifugation, an aliquot of supernatant was analyzed by LC-MS/MS. The percentage of formation of active agent was calculated at each time point.
Regarding `CN(C)[C@H]1C[C@@H]1OC(=O)c1ccc2nc(-c3cc(Cl)cc(Cl)c3)oc2c1` (relative stereo) [Compound 154, trans 2-(dimethylamino)cyclopropyl 2-(3,5-dichlorophenyl)benzo-[d]oxazole-6-carboxylate hydrochloride], the “Formation of tafamidis at 60 min” value is listed as “C (C is ≥50 to <75%)”.
Under `Cn1ccc(CCCOC(=O)c2ccc3nc(-c4cc(Cl)cc(Cl)c4)oc3c2)n1` [Compound 104] stands “B (B is ≥25 to <50%)”.
On to `O=C(OCCc1ccccn1)c1ccc2nc(-c3cc(Cl)cc(Cl)c3)oc2c1` [Compound 105], for which the “Formation of tafamidis at 60 min” value was “D (D is ≥75%)”.
Under `O=C(OCCCc1ccccn1)c1ccc2nc(-c3cc(Cl)cc(Cl)c3)oc2c1` [Compound 106] stands “D (D is ≥75%)”; under `O=C(OCc1cccnc1)c1ccc2nc(-c3cc(Cl)cc(Cl)c3)oc2c1` [Compound 107], “D (D is ≥75%)”.
For `O=C(OCCc1cccnc1)c1ccc2nc(-c3cc(Cl)cc(Cl)c3)oc2c1` [Compound 108] the value was “D (D is ≥75%)”.
For `O=C(OCc1ccncc1)c1ccc2nc(-c3cc(Cl)cc(Cl)c3)oc2c1` [Compound 109] the value was “C (C is ≥50 to <75%)”; for `O=C(OCCc1ccncc1)c1ccc2nc(-c3cc(Cl)cc(Cl)c3)oc2c1` [Compound 110], “C (C is ≥50 to <75%)”; for `O=C(OCCCc1cccnc1)c1ccc2nc(-c3cc(Cl)cc(Cl)c3)oc2c1` [Compound 112], “D (D is ≥75%)”.
For `O=C(OCCCc1ccncc1)c1ccc2nc(-c3cc(Cl)cc(Cl)c3)oc2c1` [Compound 113], the “Formation of tafamidis at 60 min” value is “D (D is ≥75%)”.
As for `COc1nc(C)c(COC(=O)c2ccc3nc(-c4cc(Cl)cc(Cl)c4)oc3c2)o1` [Compound 114, (2-methoxy-4-methyloxazol-5-yl)methyl 2-(3,5-dichlorophenyl)-benzo [d] oxazole-6-carboxylate], the “Formation of tafamidis at 60 min” value is “A (A is <25%)”.
Under `O=C(OC1CCN(C2CC2)C1)c1ccc2nc(-c3cc(Cl)cc(Cl)c3)oc2c1` (stereo not drawn) [Compound 115] stands “D (D is ≥75%)”; under `CN1CC(OC(=O)c2ccc3nc(-c4cc(Cl)cc(Cl)c4)oc3c2)C1` [Compound 118], “B (B is ≥25 to <50%)”; under `CN(C)[C@@H]1CC[C@H]1OC(=O)c1ccc2nc(-c3cc(Cl)cc(Cl)c3)oc2c1` [Compound 120], “B (B is ≥25 to <50%)”.
For `CN(C)[C@H]1C[C@@H](OC(=O)c2ccc3nc(-c4cc(Cl)cc(Cl)c4)oc3c2)C1` [Compound 121] the value was “A (A is <25%)”; for `CN1CCCC1CCOC(=O)c1ccc2nc(-c3cc(Cl)cc(Cl)c3)oc2c1` (stereo not drawn) [Compound 122], “A (A is <25%)”; for `Cn1cncc1COC(=O)c1ccc2nc(-c3cc(Cl)cc(Cl)c3)oc2c1` [Compound 123], “C (C is ≥50 to <75%)”.
On to `CN(C)[C@H]1C[C@H](OC(=O)c2ccc3nc(-c4cc(Cl)cc(Cl)c4)oc3c2)C1` [Compound 125], for which the “Formation of tafamidis at 60 min” value is on record as “A (A is <25%)”.
In the case of `CN1CCC(CCOC(=O)c2ccc3nc(-c4cc(Cl)cc(Cl)c4)oc3c2)C1` (stereo not drawn) [Compound 126], the “Formation of tafamidis at 60 min” value is on record as “A (A is <25%)”.
Under `Cn1nccc1COC(=O)c1ccc2nc(-c3cc(Cl)cc(Cl)c3)oc2c1` [Compound 127] stands “D (D is ≥75%)”; under `Cn1cc(COC(=O)c2ccc3nc(-c4cc(Cl)cc(Cl)c4)oc3c2)cn1` [Compound 128], “C (C is ≥50 to <75%)”; under `Cn1cnc(COC(=O)c2ccc3nc(-c4cc(Cl)cc(Cl)c4)oc3c2)c1` [Compound 129], “D (D is ≥75%)”.
Under `O=C(OCc1cccnn1)c1ccc2nc(-c3cc(Cl)cc(Cl)c3)oc2c1` [Compound 130] stands “D (D is ≥75%)”; under `O=C(OCc1ccncn1)c1ccc2nc(-c3cc(Cl)cc(Cl)c3)oc2c1` [Compound 131], “D (D is ≥75%)”; under `O=C(OCc1cnccn1)c1ccc2nc(-c3cc(Cl)cc(Cl)c3)oc2c1` [Compound 132], “D (D is ≥75%)”.
Consider `O=C(OCc1cncnc1)c1ccc2nc(-c3cc(Cl)cc(Cl)c3)oc2c1` [Compound 133], for which the “Formation of tafamidis at 60 min” value was “C (C is ≥50 to <75%)”.
For the compound `CN(C)[C@H]1CCC[C@H]1OC(=O)c1ccc2nc(-c3cc(Cl)cc(Cl)c3)oc2c1` [Compound 134], the “Formation of tafamidis at 60 min” value is given as “A (A is <25%)”.
For `O=C(OCc1ccnnc1)c1ccc2nc(-c3cc(Cl)cc(Cl)c3)oc2c1` [Compound 135] the value was “C (C is ≥50 to <75%)”; for `CN1CCCC1CCCOC(=O)c1ccc2nc(-c3cc(Cl)cc(Cl)c3)oc2c1` (stereo not drawn) [Compound 136], “A (A is <25%)”; for `CN1CCC(CCCOC(=O)c2ccc3nc(-c4cc(Cl)cc(Cl)c4)oc3c2)C1` (stereo not drawn) [Compound 137], “A (A is <25%)”.
For `CC(=O)N1CCC(OC(=O)c2ccc3nc(-c4cc(Cl)cc(Cl)c4)oc3c2)C1` (stereo not drawn) [Compound 138] the value was “A (A is <25%)”.
For `[2H]C([2H])([2H])N1CCC(OC(=O)c2ccc3nc(-c4cc(Cl)cc(Cl)c4)oc3c2)C1` (stereo not drawn) [Compound 140] the value was “A (A is <25%)”; for `C[N+]1([O-])CCC(OC(=O)c2ccc3nc(-c4cc(Cl)cc(Cl)c4)oc3c2)C1` (stereo not drawn) [Compound 141, 3-((2-(3,5-dichlorophenyl)benzo[d]oxazole-6-carbonyl)oxy)-1-methylpyrrolidine 1-oxide], “A (A is <25%)”.
Regarding `CC[N+]1([O-])CCC(OC(=O)c2ccc3nc(-c4cc(Cl)cc(Cl)c4)oc3c2)C1` (stereo not drawn) [Compound 142], the “Formation of tafamidis at 60 min” value is given as “A (A is <25%)”.
As to `CC(OC(=O)c1ccc2nc(-c3cc(Cl)cc(Cl)c3)oc2c1)c1ncccn1` (stereo not drawn) [Compound 146], the “Formation of tafamidis at 60 min” value is on record as “C (C is ≥50 to <75%)”.
Under `O=C(OC1CCN(CCF)C1)c1ccc2nc(-c3cc(Cl)cc(Cl)c3)oc2c1` (stereo not drawn) [Compound 147] stands “B (B is ≥25 to <50%)”; under `O=C(OCCCc1ncccn1)c1ccc2nc(-c3cc(Cl)cc(Cl)c3)oc2c1` [Compound 148, 3-(pyrimidin-2-yl)propyl 2-(3,5-dichlorophenyl)benzo[d]oxazole-6-carboxylate], “D (D is ≥75%)”; under `O=C(OC1CCn2ccnc21)c1ccc2nc(-c3cc(Cl)cc(Cl)c3)oc2c1` (stereo not drawn) [Compound 149], “D (D is ≥75%)”.
As to `O=CN1CCC(OC(=O)c2ccc3nc(-c4cc(Cl)cc(Cl)c4)oc3c2)C1` (stereo not drawn) [Compound 150], the “Formation of tafamidis at 60 min” value is “B (B is ≥25 to <50%)”.
Under `[2H]C([2H])([2H])N(CCCOC(=O)c1ccc2nc(-c3cc(Cl)cc(Cl)c3)oc2c1)C([2H])([2H])[2H]` [Compound 152] stands “A (A is <25%)”.
Under `O=C(OC1CCCn2ccnc21)c1ccc2nc(-c3cc(Cl)cc(Cl)c3)oc2c1` (stereo not drawn) [Compound 155, 5,6,7,8-tetrahydroimidazo[1,2-a]pyridin-8-yl 2-(3,5-dichlorophenyl)benzo[d]oxazole-6-carboxylate] stands “D (D is ≥75%)”.
For `Cc1ncc2n1CCC2OC(=O)c1ccc2nc(-c3cc(Cl)cc(Cl)c3)oc2c1` (stereo not drawn) [Compound 159, 3-methyl-6,7-dihydro-5H-pyrrolo[1,2-c]imidazol-7-yl 2-(3,5-dichlorophenyl)benzo[d]oxazole-6-carboxylate hydrochloride] the value was “D (D is ≥75%)”.
In the case of `CN1CC(OC(=O)c2ccc3nc(-c4cc(Cl)cc(Cl)c4)oc3c2)CCC1=O` (stereo not drawn) [Compound 162], the “Formation of tafamidis at 60 min” value is listed as “B (B is ≥25 to <50%)”.
Under `O=C(OC1CCCN(Cc2ccccc2)C1)c1ccc2nc(-c3cc(Cl)cc(Cl)c3)oc2c1` (stereo not drawn) [Compound 164] stands “B (B is ≥25 to <50%)”; under `O=C(OCC1CCCN1Cc1ccccc1)c1ccc2nc(-c3cc(Cl)cc(Cl)c3)oc2c1` (stereo not drawn) [Compound 165], “C (C is ≥50 to <75%)”; under `CC(Cc1cccnc1)OC(=O)c1ccc2nc(-c3cc(Cl)cc(Cl)c3)oc2c1` (stereo not drawn) [Compound 168, 1-(pyridin-3-yl)propan-2-yl 2-(3,5-dichlorophenyl)benzo[d]oxazole-6-carboxylate], “B (B is ≥25 to <50%)”.
Under `CC(Cc1ccncc1)OC(=O)c1ccc2nc(-c3cc(Cl)cc(Cl)c3)oc2c1` (stereo not drawn) [Compound 169] stands “B (B is ≥25 to <50%)”; under `CN1CC(OC(=O)c2ccc3nc(-c4cc(Cl)cc(Cl)c4)oc3c2)CC(F)(F)C1` (stereo not drawn) [Compound 171, 5,5-difluoro-1-methylpiperidin-3-yl 2-(3,5-dichlorophenyl)benzo[d]oxazole-6-carboxylate], “C (C is ≥50 to <75%)”.
For `CCN1CCCC1COC(=O)c1ccc2nc(-c3cc(Cl)cc(Cl)c3)oc2c1` (stereo not drawn) [Compound 172] the value was “B (B is ≥25 to <50%)”.
As to `CN(CCF)C(=O)c1ccc2nc(-c3cc(Cl)cc(Cl)c3)oc2c1` [Compound 173], the “Formation of tafamidis at 60 min” value is given as “A (A is <25%)”.
For `CN(CC(F)F)C(=O)c1ccc2nc(-c3cc(Cl)cc(Cl)c3)oc2c1` [Compound 174] the value was “A (A is <25%)”; for `O=C(OC1CCCC1)c1ccc2nc(-c3cc(Cl)cc(Cl)c3)oc2c1` [Compound 184], “B (B is ≥25 to <50%)”.
For `O=C(OCc1ccccc1)c1ccc2nc(-c3cc(Cl)cc(Cl)c3)oc2c1` [Compound 186] the value was “D (D is ≥75%)”.
As for `O=C(OCCc1ccccc1)c1ccc2nc(-c3cc(Cl)cc(Cl)c3)oc2c1` [Compound 187], the “Formation of tafamidis at 60 min” value is listed as “C (C is ≥50 to <75%)”.
